Assay results from paper PMC9098913, “In vitro reconstitution of Escherichia coli divisome activation” (Nature Communications, 2022).
Where “and” joins values, the source holds several entries; their conditions need not be identical. Equal entries are not always repeated. Where two headings read alike, the source gives them in different places.

Legend:
FtsA self-interaction = assay: FRET (acceptor photobleaching) self-interaction of FtsA on supported lipid bilayers; assay type: binding, E. coli
From the text: To directly measure FtsA self-interaction in our fluorescence microscopy experiments, we established a FRET (Förster resonance energy transfer)-based assay using FtsA labelled with either Cy5 (acceptor) or Cy3 (donor). […] We then decided to use this approach to measure the degree of FtsA self-interaction on supported lipid membranes by quantifying the increase in donor fluorescence after photobleaching the acceptor fluorophore[30]–[32] (Fig. 3c–e and Fig. S3d). […] As a negative control, we also attached the Hexahistidine-SUMO-tag (His-SUMO) labelled with Cy5 and Cy3 to membranes with an increasing density of Tris-NTA lipids.
Equimolar concentrations of Cy3- and Cy5-labelled FtsA, supplemented with 20% unlabelled FtsA were used to study FRET and FRAP. Five pre-bleach frames were acquired, followed by acceptor photobleaching of a rectangular ROI with 40% 641 nm laser power and a dwell size of 1 µs/pixel, 75% overlapping lines. The recovery of the signal or the increase in donor intensity were measured with either two frames or one frame per second.
Bleaching the acceptor dye leads to an increase in the donor intensity, which can be used to quantify the Foerster Resonance energy transfer (FRET)[48]. FRET efficiency was quantified with E%=Ipost/Ipost+Ipre⋅100 , where Ipost is the intensity of the […] and Ipre is the […]. […] To extract the contribution of both processes, we adjusted a routine recently published by Gerganova et al.[33]. In short, the code provides the contribution of both modes of recovery by analysing the shape of the fluorescence recovery profile. […] Contribution of diffusion leads to a change of the slope of the outer borders of the bleached region (S4h right). Thus, by measuring the change of the slope of the border recovery, diffusion and simple on/off binding can be distinguished. We developed “FRAPdiff”, a graphical user interface, which uses the original fit routine by David Rutkowski. It can be used directly on.tiff movies with annotated bleach regions as ImageJ ROIs. In addition, we added optional bleach correction, user selectable projection axis (x or y), and optional mirroring of the recovery profiles, if bleaching was not symmetric. The original fit routine for estimating the recovery and diffusion dynamics can be found at https://github.com/davidmrutkowski/1DReflectingDiffusion. FRAPdiff is available at 10.5281/zenodo.6400639[49] under the GPLv3 open-source license.

[1] = Nucleotide effect on membrane binding of FtsA WT (normalized intensity); conditions: Fig. S3m
[2] = Fig. S4b, 0.10 % Tris NTA
Description: To study colocalization of His-tagged variants of FtsA, 0.5–1 µM of Cy5 labelled His-tagged FtsAs were added to the chamber, incubated for 20 min and washed 6x with reaction buffer. […] To control the density of membrane-bound FtsA, SUVs without and with Tris-NTA lipids were mixed to obtain the respective Tris-NTA concentrations. To perform FRET/FRAP experiments, equimolar concentrations of Cy3 and Cy5 labelled His-tagged FtsAs (total 0.5–1 µM) or His-SUMO-Cys were added to a chamber and treated as above. […] FRAP experiments were performed as described before.
To calculate the theoretical spacing of His-tagged FtsAs or the His-SUMO control, we consulted a previous QCM-D study using Tris-NTA lipids and a His-tagged version of ZipA[50]. The spacing in nm^2 was calculated by y=2/3⋅1/6.022⋅x⋅0.001 , where x is the protein density in pMol cm^−2 which can be estimated from the Tris-NTA lipid density.
To estimate the theoretical maximum packing of membranes containing Tris-NTA lipids, we can assume the area of a single FtsA molecule to be ~30 nm^2 and the area of a single lipid molecule to be 0.5 nm^2. […] For the FRET control experiments with His-SUMO-Cys, we estimate a four times smaller area for His6-SUMO Cys (~7 nm^2) and thus increase the maximum Tris-NTA density to 5%.

FtsA WT: wild-type E. coli actin-homologue FtsA, membrane anchor of FtsZ
FRET efficiency, mean (FtsA self-interaction; 0.1 µM FtsA + FtsN&Z): 15.28% | FRET efficiency, mean (FtsA self-interaction; 0.1 µM FtsA + FtsN): 8.5880% and 8.59% | FRET efficiency, mean (FtsA self-interaction; 0.1 µM FtsA + FtsZ): 7.8480% and 7.85% | FRET efficiency, mean (FtsA self-interaction; 0.1 µM FtsA alone): 8.1133% | FRET efficiency, mean (FtsA self-interaction; 0.2 µM FtsA + FtsN&Z): 17.79% | FRET efficiency, mean (FtsA self-interaction; 0.2 µM FtsA + FtsN): 12.6840% and 12.68% | FRET efficiency, mean (FtsA self-interaction; 0.2 µM FtsA + FtsZ): 12.5828% and 12.58% | FRET efficiency, mean (FtsA self-interaction; 0.2 µM FtsA alone): 16.69% | FRET efficiency, mean (FtsA self-interaction; 0.4 µM FtsA + FtsN&Z): 30.1680% and 30.17% | FRET efficiency, mean (FtsA self-interaction; 0.4 µM FtsA + FtsN): 27.2922% and 27.29% | FRET efficiency, mean (FtsA self-interaction; 0.4 µM FtsA + FtsZ): 17.7412% and 17.74% | FRET efficiency, mean (FtsA self-interaction; 0.4 µM FtsA alone): 22.27% | FRET efficiency (FtsA self-interaction; 0.4 µM FtsA with FtsNcyto and FtsZ, p-value 0.64): 30.2 ± 9.6% | FRET efficiency (FtsA self-interaction; 0.4 µM FtsA, p-value 6.12 × 10^−9): 22.1 ± 5.7% | FRET efficiency, mean (FtsA self-interaction; 0.8 µM FtsA + FtsN&Z): 34.2167% and 34.22% | FRET efficiency, mean (FtsA self-interaction; 0.8 µM FtsA + FtsN): 29.89% | FRET efficiency, mean (FtsA self-interaction; 0.8 µM FtsA + FtsZ): 27.1326% and 27.13% | FRET efficiency, mean (FtsA self-interaction; 0.8 µM FtsA alone): 31.17% | FRET efficiency (FtsA self-interaction; Fig. S3f, 0.2µM FtsA + N/Z, replicate 1): 17.94% | FRET efficiency (FtsA self-interaction; Fig. S3f, 0.2µM FtsA + N/Z, replicate 2): 16.55% | FRET efficiency (FtsA self-interaction; Fig. S3f, 0.2µM FtsA + N/Z, replicate 3): 18.88% | FRET efficiency (FtsA self-interaction; Fig. S3f, 0.2µM FtsA + N, replicate 1): 7.76% | FRET efficiency (FtsA self-interaction; Fig. S3f, 0.2µM FtsA + N, replicate 2): 9.38% | FRET efficiency (FtsA self-interaction; Fig. S3f, 0.2µM FtsA + N, replicate 3): 9.72% | FRET efficiency (FtsA self-interaction; Fig. S3f, 0.2µM FtsA + Z, replicate 1): 9.62% | FRET efficiency (FtsA self-interaction; Fig. S3f, 0.2µM FtsA + Z, replicate 2): 10.06% | FRET efficiency (FtsA self-interaction; Fig. S3f, 0.2µM FtsA + Z, replicate 3): 7.69% | FRET efficiency (FtsA self-interaction; Fig. S3f, 0.2µM FtsA, replicate 1): 12.55% | FRET efficiency (FtsA self-interaction; Fig. S3f, 0.2µM FtsA, replicate 2): 13.62% | FRET efficiency (FtsA self-interaction; Fig. S3f, 0.2µM FtsA, replicate 3): 23.13% | FRET efficiency (FtsA self-interaction; Fig. S3f, 0.4µM FtsA + N/Z, replicate 1): 16.64% | FRET efficiency (FtsA self-interaction; Fig. S3f, 0.4µM FtsA + N/Z, replicate 2): 39.69% | FRET efficiency (FtsA self-interaction; Fig. S3f, 0.4µM FtsA + N/Z, replicate 3): 38.87% | FRET efficiency (FtsA self-interaction; Fig. S3f, 0.4µM FtsA + N, replicate 1): 18.29% | FRET efficiency (FtsA self-interaction; Fig. S3f, 0.4µM FtsA + N, replicate 2): 25.77% | FRET efficiency (FtsA self-interaction; Fig. S3f, 0.4µM FtsA + N, replicate 3): 38.25% | FRET efficiency (FtsA self-interaction; Fig. S3f, 0.4µM FtsA + Z, replicate 1): 14.31% | FRET efficiency (FtsA self-interaction; Fig. S3f, 0.4µM FtsA + Z, replicate 2): 10.18% | FRET efficiency (FtsA self-interaction; Fig. S3f, 0.4µM FtsA + Z, replicate 3): 12.8% | FRET efficiency (FtsA self-interaction; Fig. S3f, 0.4µM FtsA, replicate 1): 20.04% | FRET efficiency (FtsA self-interaction; Fig. S3f, 0.4µM FtsA, replicate 2): 14.17% | FRET efficiency (FtsA self-interaction; Fig. S3f, 0.4µM FtsA, replicate 3): 22.75% | FRET efficiency (FtsA self-interaction; Fig. S3n, AMP PNP, 0.10 µM FtsA, replicate 1): 2.62% | FRET efficiency (FtsA self-interaction; Fig. S3n, AMP PNP, 0.10 µM FtsA, replicate 2): -0.01% | FRET efficiency (FtsA self-interaction; Fig. S3n, AMP PNP, 0.20 µM FtsA, replicate 1): 5.42% | FRET efficiency (FtsA self-interaction; Fig. S3n, AMP PNP, 0.20 µM FtsA, replicate 2): 10.85% | FRET efficiency (FtsA self-interaction; Fig. S3n, AMPPNP, 0.10 µM FtsA, summary value): 1.30% | FRET efficiency (FtsA self-interaction; Fig. S3n, AMPPNP, 0.20 µM FtsA, summary value): 8.14% | FRET efficiency (FtsA self-interaction; Fig. S3n, AMPPNP, 0.40 µM FtsA, summary value): 9.64% | FRET efficiency (FtsA self-interaction; Fig. S3n, AMPPNP, 0.80 µM FtsA, summary value): 10.07% | FRET efficiency (FtsA self-interaction; Fig. S3n, ATP, 0.10 µM FtsA, summary value): 8.36% | FRET efficiency (FtsA self-interaction; Fig. S3n, ATP, 0.20 µM FtsA, summary value): 16.69% | FRET efficiency (FtsA self-interaction; Fig. S3n, ATP, 0.40 µM FtsA, summary value): 22.27% | FRET efficiency (FtsA self-interaction; Fig. S3n, ATP, 0.80 µM FtsA, summary value): 31.17% | FRET efficiency (FtsA self-interaction; Fig. S3n, ATPgS, 0.10 µM FtsA, summary value): 4.97% | FRET efficiency (FtsA self-interaction; Fig. S3n, ATPgS, 0.20 µM FtsA, summary value): 9.83% | FRET efficiency (FtsA self-interaction; Fig. S3n, ATPgS, 0.40 µM FtsA, summary value): 14.66% | FRET efficiency (FtsA self-interaction; Fig. S3n, ATPgS, 0.80 µM FtsA, summary value): 21.79% | effect of FtsNcyto on FRET (FtsA self-interaction; presence of FtsNcyto): small FRET increase | Normalized intensity ([1]; AMP PNP, 0.10 µM FtsA, replicate 1): 0.07 a.u. | Normalized intensity ([1]; AMP PNP, 0.10 µM FtsA, replicate 2): 0.13 a.u. | Normalized intensity ([1]; AMPPNP, 0.20 µM FtsA, summary value): 0.62 a.u. | Normalized intensity ([1]; AMPPNP, 0.40 µM FtsA, summary value): 0.75 a.u. | Normalized intensity ([1]; AMPPNP, 0.80 µM FtsA, summary value): 1.00 a.u. | Normalized intensity ([1]; ATP, 0.10 µM FtsA, replicate 1): 0.20 a.u. | Normalized intensity ([1]; ATP, 0.10 µM FtsA, replicate 2): 0.48 a.u. | Normalized intensity ([1]; ATP, 0.10 µM FtsA, summary value): 0.37 a.u. | Normalized intensity ([1]; ATP, 0.20 µM FtsA, summary value): 0.67 a.u. | Normalized intensity ([1]; ATP, 0.40 µM FtsA, summary value): 0.82 a.u. | Normalized intensity ([1]; ATP, 0.80 µM FtsA, summary value): 0.95 a.u. | Normalized intensity ([1]; ATPgS, 0.20 µM FtsA, summary value): 0.20 a.u. | Normalized intensity ([1]; ATPgS, 0.40 µM FtsA, summary value): 0.21 a.u. | Normalized intensity ([1]; ATPgS, 0.80 µM FtsA, summary value): 0.65 a.u.

FtsA-His6: FtsA WT (1-405) with amphipathic helix replaced by C-terminal His-tag
FtsA His6 intensity on Tris NTA SLBs ([2]; replicate 1): 1571.82 a.u. | FtsA His6 intensity on Tris NTA SLBs ([2]; replicate 2): 1134.07 a.u. | FtsA His6 intensity on Tris NTA SLBs ([2]; replicate 3): 932.94 a.u.
